# Test results from PMC3718762, “Differential Disruption of EWS-FLI1 Binding by DNA-Binding Agents” (PLoS ONE, 2013).
# Starred links: 1 amine or outer side, 2 acyl side, 3 side chain; linkers in the order of their positions; H or OH if unused. Positions of bridges follow the written chain, without caps; N, C: chain ends. Non-standard residues stand in square brackets, D forms with d. Residues, ends and D or L forms follow the SMILES beside them. Chains are numbered I, II in the order given. Actinocin(9to1) = Cc1c2oc3c(C)ccc(C(=O)[*:1])c3nc-2c(C(=O)[*:2])c(N)c1=O; NMeV = CN[C@H](C(=O)O)C(C)C; Sar = CNCC(=O)O
# System: EWS-FLI1-induced genes
# Test: Gene expression profiling with GSEA in A673 cells
# Assay type: cell-based
# Settings: 5 nM, 24 hours
# Experimental: Ewing sarcoma A673 cells at 65% confluence were treated in duplicate with DMSO (0.2%) or 5 nM actinomycin D for 24 hours. RNA was extracted with an Absolutely RNA kit. 100 ng of total RNA was hybridized to Affymetrix Gene 1.0 ST Arrays (DFCI Microarray Core Facility). Array quality was verified before background correction, RMA normalization and log2 conversion using the Bioconductor R package affy (URL: http://www.bioconductor.org). Differential gene expression was determined using the limma Bioconductor package. Genes with a fold-change >2 and Benjamini-Hochberg-corrected p-value <0.01 were retained for further consideration. Gene expression data have been deposited in GEO (GSE45414) and can be accessed at URL: http://www.ncbi.nlm.nih.gov/geo/query/acc.cgi?acc=GSE45414.
# Consistent with the enrichment of E2F targets among EWS-FLI1-induced genes we noted in the shRNA study above (Figure 3A), we also found down-regulation of this class of signatures in A673 cells treated with low-dose actinomycin D (Figure 3B, black circles).
structure (smiles),measurement,value
"Cc1c2oc3c(C)ccc(C(=O)N[C@@H]4C(=O)N[C@H](C(C)C)C(=O)N5CCC[C@H]5C(=O)N(C)CC(=O)N(C)[C@@H](C(C)C)C(=O)O[C@@H]4C)c3nc-2c(C(=O)N[C@@H]2C(=O)N[C@H](C(C)C)C(=O)N3CCC[C@H]3C(=O)N(C)CC(=O)N(C)[C@@H](C(C)C)C(=O)O[C@@H]2C)c(N)c1=O [Actinomycin D] (I: T[dV]P[Sar][NMeV] / II: T[dV]P[Sar][NMeV]; ester I:1-I:C, II:1-II:C; linker I:N-II:N via Actinocin(9to1))",Expression of EWS-FLI1-induced genes (GSEA),repressed to a significant degree
